Assay results reported in paper PMC11423305, “Structure-Based Design of CBP/EP300 Degraders: When Cooperativity Overcomes Affinity” (JACS Au, 2024).

System: crebbp and ep300 expression
Assay: Gene expression analysis by RT-qPCR in LP1 cells
Format: cell-based
Settings: 16 h, 1 μM, normalized to hprt
Experimental: cooperativity factor (α) was defined as the ratio of the IC50 values in the absence and […]
For the ternary complex experiments, the final assay composition was: 0.1 % DMSO, 5 nM GST-CBP, 5 nM CRBN-Avi(biotin), 100 mM KF, 0.625 nM XL665-Streptavidin conjugate and 0.8 nM anti-GST mAb – Eu3+-cryptate. The maximal control contained 40 nM dCBP-1, the blank contained no PROTAC. Hook curves were generated by normalization to the maximal control.
LP1 cells were cultured in DMEM (Gibco, 41966-029) supplemented with 15 % FBS (Sigma, F9665); MM1S and LNCaP cells in RPMI 1640 ATCC modification (Gibco, […]
DMEM/F12 (Gibco, 11320074) supplemented with 1 % non-essential amino acids […]
Quantification of CBP/EP300 degradation by Western blotting
LP1 cells plated on 6 well plates were treated with the stated compounds at a final concentration of 0.1 % DMSO for the stated time. […] Protein concentrations were determined using the Pierce ™ BCA Protein Assay Kit (Thermo Scientific, 23227) and equal amounts were separated on 4-12 % ExpressPl us™ PAGE gels (GenScript, M41215). […]
SuperSignal™ West Pico PLUS Chemiluminescent Substrate (Thermo Scientific, 34580) and the Vilber Fusion-FX7 imager. Bands were quantified using ImageJ software and protein levels normalized to protein from DMSO treated cells run on the same membrane. […]

## Cc1cc2c(NC(=O)c3cc(NC(=O)CCCCCCCCCCNc4cccc5c4C(=O)N(C4CCC(=O)NC4=O)C5=O)cc(-c4ccn(C)n4)c3)cccc2nn1 (stereo not shown) [dCE-2]
  crebbp and ep300 expression: mild upregulation
